From ChEMBL document CHEMBL1135161, “Antimalarial activities of ring-substituted bioimidazoles” (Bioorg Med Chem Lett, 2002) come the findings set out here.

Calls of active or inactive are those of the source. No cut-off for these calls is given here.

For experiment [1], the system named is Plasmodium falciparum. Nature of the experiment: In vitro antimalarial activity against chloroquine-sensitive Plasmodium falciparum. The experiment is classed as functional, organism-based.
The subject of experiment [2] is Mus musculus. Nature of the experiment: In vivo antimalarial activity of compound against Plasmodium berghei infected in mice (Mus musculus) model; Inactive. The experiment is classed as functional, organism-based.
Experiment [3] has as its system Plasmodium falciparum. Nature of the experiment: In vitro antimalarial activity against chloroquine-resistant Plasmodium falciparum. The experiment is classed as functional, organism-based.
The subject of experiment [4] is Mus musculus. Nature of the experiment: In vivo antimalarial activity of compound against Plasmodium berghei infected in mice (Mus musculus) model. Compound active at given dose. The experiment is classed as functional.

Regarding `Cc1nc(CC(N)C(=O)O)c[nH]1` (stereo not given), the IC50 (usually the concentration needed to halve the response being measured) in the experiment with Plasmodium falciparum [1] was more than 500 µM. The same measure, in the same setting: in the case of `NCCc1c[nH]c(C2CCCCC2)n1` it was more than 500 µM.

For the compound `NC(Cc1cnc(C2CCCCC2)n1Cc1ccccc1)C(=O)O` (stereo not given), in the experiment with Plasmodium falciparum [1], the IC50 was more than 500 µM. On the same count and under the same terms, as for `NCCc1cnc(C23CC4CC(CC(C4)C2)C3)n1Cc1ccccc1`, the figure is more than 500 µM; as for `Cn1cc(CCN)nc1C(C)(C)C`, 459 µM. As to `CC(C)(C)c1nc(CCN)c[nH]1`, in the experiment with Mus musculus [2], the DOSE entry is “inactive”. For the same compound, the IC50 in the experiment with Plasmodium falciparum [3] is 30.3 µM; with Plasmodium falciparum [1], 15.5 µM. For the compound `NCCc1c[nH]c(C2CCCC2)n1`, half-maximal inhibition in the experiment on Plasmodium falciparum [1] (IC50) was put at 489 µM. Still for that read-out and setting: as for `NC(Cc1cnc(C23CC4CC(CC(C4)C2)C3)n1Cc1ccccc1)C(=O)O` (stereo not given), the figure is more than 500 µM; as for `CC(C)c1nc(CCN)cn1C`, 387 µM. Consider `CC(C)n1cnc(CCN)c1`, for which the Dose with Mus musculus [4] was determined as 100 mg/kg. The IC50 was found to be 10.4 µM in the experiment with Plasmodium falciparum [3] and 9.6 µM with Plasmodium falciparum [1]. `NCCc1cn(Cc2ccccc2)cn1`: the DOSE entry in the experiment with Mus musculus [2] is “inactive”. In addition, the results for the IC50 in the experiment with Plasmodium falciparum [3] and in the experiment with Plasmodium falciparum [1] were 22.5 µM and 20.7 µM, respectively.

In the case of `NC(Cc1cn(Cc2ccccc2)cn1)C(=O)O` (stereo not given), the IC50 with Plasmodium falciparum [1] was determined as 360 µM.

For `CC(C)(C)c1ncc(CCN)n1Cc1ccccc1`, it took 233 µM to reach half-maximal inhibition in the experiment with Plasmodium falciparum [1] (IC50). The same measure, in the same setting: as for `CCn1cnc(CC(N)C(=O)O)c1` (stereo not given), the figure is more than 500 µM; as for `CC(C)c1ncc(CCN)n1Cc1ccccc1`, 188 µM; as for `CC(C)(C)c1nc(CC(N)C(=O)O)cn1Cc1ccccc1` (stereo not given), 157 µM. For `CC(C)(C)c1nc(CC(N)C(=O)O)c[nH]1` (stereo not given), in the experiment on Mus musculus [2], the DOSE entry was “inactive”. In addition, the IC50 was 3.85 µM in the experiment on Plasmodium falciparum [3] and 25.8 µM in the experiment on Plasmodium falciparum [1]. Take `NC(Cc1c[nH]c(C2CCCCC2)n1)C(=O)O` (stereo not given): the IC50 with Plasmodium falciparum [1] was 350 µM. For `CC(C)c1nc(CC(N)C(=O)O)cn1Cc1ccccc1` (stereo not given), the DOSE result with Mus musculus [2] was “inactive”. In addition, the IC50 in the experiment on Plasmodium falciparum [3] turned out to be 245 µM; in the experiment on Plasmodium falciparum [1], 89 µM. In the case of `Cn1cnc(CCN)c1` [N-METHYLHISTAMINE], in the experiment on Plasmodium falciparum [1], the IC50 is more than 500 µM. Still for that read-out and setting: in the case of `CC(C)(C)c1ncc(CC(N)C(=O)O)n1Cc1ccccc1` (stereo not given) it was 399 µM; in that of `NCCc1c[nH]c(C2CCC2)n1`, 367 µM; in that of `CC(C)n1cnc(CC(N)C(=O)O)c1` (stereo not given), 120 µM. Still for that read-out and setting: as for `NC(Cc1c[nH]c(C23CC4CC(CC(C4)C2)C3)n1)C(=O)O` (stereo not given), the figure is 450 µM; as for `Cc1ncc(CCN)[nH]1` [2-METHYLHISTAMINE], more than 500 µM; as for `Cn1cc(CC(N)C(=O)O)nc1C1CCCCC1` (stereo not given), more than 500 µM. Still for that read-out and setting: as for `NCCc1cnc(C2CCCCC2)n1Cc1ccccc1`, the figure is more than 500 µM; as for `CCc1nc(CCN)c[nH]1`, more than 500 µM. Compound `NC(Cc1c[nH]c(C2CCC2)n1)C(=O)O` (stereo not given) returned an IC50 in the experiment on Plasmodium falciparum [1] of 255 µM. The same measure, in the same setting: in the case of `NC(Cc1c[nH]c(C2CCCC2)n1)C(=O)O` (stereo not given) it was 276 µM.

Consider `Cn1cc(CCN)nc1C1CCCCC1`, for which the IC50 in the experiment with Plasmodium falciparum [1] is more than 500 µM. On the same count and under the same terms, as for `C=CCn1cnc(CCN)c1`, the figure is 176 µM; as for `Cn1c(CC(N)C(=O)O)cnc1C(C)(C)C` (stereo not given), more than 500 µM.

In the experiment on Mus musculus [4], `CC(C)c1nc(CCN)c[nH]1` came in with a Dose of 100 mg/kg. Moreover, the IC50 in the experiment with Plasmodium falciparum [3] turned out to be 4.8 µM; in the experiment on Plasmodium falciparum [1] it was 4.7 µM. As for `CC(C)c1nc(CC(N)C(=O)O)cn1C` (stereo not given), the IC50 in the experiment with Plasmodium falciparum [1] is more than 500 µM. The same measure, in the same setting: as for `CCc1nc(CC(N)C(=O)O)c[nH]1` (stereo not given), the figure is more than 500 µM. `CC(C)c1nc(CC(N)C(=O)O)c[nH]1` (stereo not given): in the experiment with Mus musculus [4], the Dose was 100 mg/kg. In addition, the IC50 with Plasmodium falciparum [3] worked out at 6.5 µM; in the experiment with Plasmodium falciparum [1], 6.3 µM. Take `CCn1cnc(CCN)c1`: the IC50 in the experiment with Plasmodium falciparum [1] was more than 500 µM.

As to `CC(C)c1ncc(CC(N)C(=O)O)n1Cc1ccccc1` (stereo not given), half-maximal inhibition in the experiment with Plasmodium falciparum [1] (IC50) was put at 355 µM. On the same count and under the same terms, as for `Cn1cnc(CC(N)C(=O)O)c1` (stereo not given), the figure is more than 500 µM; as for `Cn1cc(CC(N)C(=O)O)nc1C(C)(C)C` (stereo not given), more than 500 µM.
